Data on 8 molecules can be found in patent US10900063B2, “Measurement of Lp-PLA2 activity” (ASAHI KASEI PHARMA CORPORATION, priority 2016, dated 2021).

For data set [1] the following is noted: neutral pH; cited from earlier work.
For data set [2], the target named is T1, Lp-PLA2 (Homo sapiens, UniProt Q13093).
T1 construct: Individual serum No. 16, individual serum No. 78; from tissue; host or cells: serum and plasma (individual sera, pooled sera, heparin and citrated pooled plasma)
T1 sequence (Q13093 22-441): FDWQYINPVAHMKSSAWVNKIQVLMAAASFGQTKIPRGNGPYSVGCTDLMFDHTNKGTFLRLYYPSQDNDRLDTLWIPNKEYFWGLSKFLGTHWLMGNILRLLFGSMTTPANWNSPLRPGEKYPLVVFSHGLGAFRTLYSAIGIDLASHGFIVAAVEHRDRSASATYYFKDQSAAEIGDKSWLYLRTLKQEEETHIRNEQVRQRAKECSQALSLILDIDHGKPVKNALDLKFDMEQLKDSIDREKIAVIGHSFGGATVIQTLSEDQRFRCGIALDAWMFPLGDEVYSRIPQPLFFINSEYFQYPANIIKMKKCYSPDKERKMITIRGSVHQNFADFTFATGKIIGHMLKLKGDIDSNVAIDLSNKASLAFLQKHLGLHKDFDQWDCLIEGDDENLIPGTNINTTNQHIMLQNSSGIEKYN
In words: Effects of coexisting substances, PLAC Test. The format is biochemical. Conditions: for Lp-PLA2 activity value / ΔmAbs/min: coexisting substance added 1:9 to pooled serum J042; for measurement value as percentage of sample with added water (100%): pooled serum J042 plus coexisting substance vs J042 + water. An excerpt:
(§1) The reagent compositions were the same as in Example 17.
(§2) The absorbance change values per minute (ΔmAbs/min) and activity values (nmol/min/mL and U/L) with each kind of reagent are shown in Tables 43 to 45. Given 100% as the measurement value of the sample with the added water, the measurement values for the other samples are shown as percentages.

Data set [3] addresses T1, Lp-PLA2. In words: Effects of coexisting substances, Lp-PLA2 FS. The format is biochemical. Conditions: for Lp-PLA2 activity value / ΔmAbs/min: coexisting substance added 1:9 to pooled serum J042; for measurement value as percentage of sample with added water (100%): pooled serum J042 plus coexisting substance vs J042 + water.
Text: as §1, §2

Data set [4] has as its target T1, Lp-PLA2. In words: Effects of coexisting substances, reagents of invention. The data set is classed as biochemical. Particulars: for measurement value as percentage of sample with added water: J042 + water = 100%, concentrations as printed in the sample names; for Lp-PLA2 activity value / absorbance change per minute: pooled serum J042 mixed 9:1 with: Bil-C 20 mg/dL, Bil-F 20 mg/dL, hemolytic Hb 500 mg/dL, chyle 1400 FTU, Intralipos 1%, ascorbic acid 50 mg/dL.
Text: as §1, §2

Data set [5] can be described thus: Specificity of recombinant lyso-PAF-PLD: PLD activity against lyso-PAF. The data set is classed as biochemical. Conditions: 0 to 0.5 mM lyso-PAF (C16); […] enzyme in R2. As for the experimental part: (§3) To investigate the specificity of the recombinant lyso-PAF-PLD purified in Reference Example 3, activity against PAF(C16) and lyso-PAF(C16) was studied. The reagent compositions are as follows.
(§4) 5 μL samples containing PAF(C16) or lyso-PAF(C16) at concentrations of 0, 0.1, 0.2, 0.3, 0.4 or 0.5 mM were each incubated for 5 minutes at 37° C. with 15 μL of the R1 reagent (measuring points 1 to 15), after which 50 μL of the R2 reagent was added and reacted for 5 minutes (measuring points 16 to 31).

Data set [6] in a line: Thermal stability test of lyso-PAF-PLD (residual activity). Conditions: incubated 60 minutes in 20 mM Tris-HCl (pH 7.5). The data set is classed as physicochemical. How it is done: The purified lyso-PAF-PLD was incubated for 60 minutes at different temperatures in a 20 mM Tris-HCl (pH 7.5) solution, and residual activity was investigated with the following reaction solution. C18(Plasm) LPC (Product No. 852465P, Avanti Polar Lipids, Inc.) was used as the substrate.
50 μL of the reaction solution was pre-incubated for 5 minutes at 37° C., 5 μL of the enzyme solution was added, and an enzyme reaction was performed for 1 minute at […]. 200 μL of the color developing solution was then added and reacted for 10 minutes at 37° C., after which absorbance was measured at 550 nm. The activity value was calculated according to the following formula.

Data set [7] in a line: Specificity of recombinant lyso-PAF-PLD: PLD activity against PAF. The data set is classed as biochemical. Particulars: 0 to 0.5 mM PAF (C16); […] enzyme in R2. How it is done: as §3, §4
The nature of data set [8]: PLD activity (kcat/Km) of lyso-PAF-PLD and site-specific mutants against lyso-PAF. The data set is classed as biochemical. Conditions: substrate lyso-PAF 0 to 5 mM, pH 7.5, 37° C. How it is done:
As a result, the pre-mutation PLD activity was 1385 (s^−1 mM^−1), but the mutant having G substituted for the M in the 45th position of SEQ ID NO: 9 (called M45G) and the similarly-named mutants M45A, M45L and M45D had PLD activities of 3059, 11411, 3284 and 4557 (s^−1mM^−1), respectively.
As a result, the PLD activity was 1385 (s^−1mM^−1) before the mutation, but the mutant having G substituted for F in the 257th position of […] (called F257G) and the similarly-named mutants F257E, F257R, F257K and F257W had PLD activities 1200, 1000, 1080, 1020 and 1320, respectively.
The PLD activity of the lyso-PAF-PLD mutants obtained by site-specific mutations was measured as follows. 1.211 g of Tris, 14.7 mg of calcium chloride dihydrate (Wako Pure Chemical Industries, Ltd.), 20 mL of lyso-PAF solution and 2 mL of 1% TODB solution were dissolved in 60 mL of purified water, the pH was adjusted to 7.5 (25° C.) with 1 N HCl, 4 mL of 100 U/mL choline oxidase, 4 mL of 100 U/mL peroxidase solution and 2 mL of 1% 4-AA solution were added and dissolved, and the total was brought to 100 mL with purified water to obtain a PLD activity measurement reagent for lyso-PAF (reaction reagent mixture). The lyso-PAF solution was adjusted so that the lyso-PAF concentration in the reaction reagent mixture was 0 to 5 mM. 3 mL of the reaction reagent mixture was pre-heated for 5 minutes at 37° C., and mixed with 50 μL of a solution of the lyso-PAF-PLD mutant with the introduced site-specific mutation diluted appropriately with 10 mM Tris-HCl (pH 7.5) to initiate a reaction, and the change in absorbance at 546 nm was measured for 1 minute between 8 and 9 minutes after initiation of the reaction. The activity value (μmole/min) was calculated given 36 (cm^2/μmole) as the millimolar extinction coefficient of the quinoneimine dye at 546 nm. The protein content (mg/mL) was calculated by the Bradford method using bovine serum albumin as the standard. Km and kcat were calculated by the Michaelis-Menten formula in accordance with the methods described in the aforementioned Theory and Practice on Enzymes and other Proteins [Tanpakushitsu/Kouso no kiso jikkenhou] and in Voet's Basic Biochemistry (Fourth Ed.) and the like. For purposes of calculation, the molecular weight of the enzyme was given as 33583.

Turning to `CCCCCCCCCCCCCC(=O)OCC(COP(=O)([O-])OCC[N+](C)(C)C)OC(=O)CCC(=O)Oc1ccc([N+](=O)[O-])cc1` (stereo not drawn) [1-myristoyl-2-(4-nitrophenylsuccinyl)phosphatidylcholine], the water solubility result in data set [1] was “poor water solubility at neutral pH values”.

Turning to `O=C1O[C@H]([C@@H](O)CO)C(O)=C1O` [ascorbic acid, L(+)-Ascorbic acid], in data set [2], the Lp-PLA2 activity value was 138.1 nmol/min/mL, the ΔmAbs/min is given as 181.0 ΔmAbs/min and the “measurement value as percentage of sample with added water (100%)” value (“measurement value as percentage … (100%)” for short) is listed as 99%. For the same molecule, in data set [3], the Lp-PLA2 activity value stood at 343.5 U/L, the ΔmAbs/min was 28.8 ΔmAbs/min and the “measurement value as percentage … (100%)” value came to 100%. In data set [4], the “measurement value as percentage of sample with added water” value is recorded as 96%, the Lp-PLA2 activity value was found to be 29.6 nmol/min/mL and the “absorbance change per minute” value is recorded as 20.9 ΔmAbs/min.

On to `C=CC1=C(C)/C(=C/c2[nH]c(Cc3[nH]c(/C=C4\NC(=O)C(C)=C4C=C)c(C)c3CCC(=O)O)c(CCC(=O)O)c2C)NC1=O` [Bil-F], for which, in data set [2], the Lp-PLA2 activity value is given as 145.5 nmol/min/mL, the ΔmAbs/min is 188.4 ΔmAbs/min and the “measurement value as percentage … (100%)” value is reported as 105%. For the same molecule, in data set [3], the Lp-PLA2 activity value amounted to 351.0 U/L, the ΔmAbs/min was 29.4 ΔmAbs/min and the “measurement value as percentage … (100%)” value is 102%. In data set [4], the “measurement value as percentage of sample with added water” value is reported as 101%, the Lp-PLA2 activity value is reported as 31.3 nmol/min/mL and the “absorbance change per minute” value was 22.1 ΔmAbs/min.

B1: lyso-PAF-PLD: recombinant enzyme from Thermocrispum sp. NITE BP-01628, SEQ ID NO: 9, PLD activity against lyso-PAF but not PAF (protein)
chain: MTTRTTDNPWLDARVLNMAHAGGENEAPANTLYAFKRAVKLGANMLELDVQSTKDDQLVVIHNATVDQTTDGTGKVRDLTFEQVHELDAAYNFIPGRHAVPGEPPESYPLRGVRTGEKKPPPGYQPSDFAIPKLADVLEAFPRTPINIEIKGTSDADIPSFLHNAKLLARLLKKTGRTDFIVTSFNDLAVAKFHLLAPDIPIAPGMAGLAAYFLLGVKPMHGTVALQIPVRYQGLEIATPEFIRRAHADGYAVHVWFSGTAPDDEATYNRIIDSCADGLMPAYPALLERILDERGIERPGRPGVDPCG
In the case of B1, in data set [5], the “PLD activity against lyso-PAF” value was “exhibits PLD activity only against lyso-PAF”. In addition, the “thermal stability (residual activity)” value in data set [6] was “not inactivated by storage at 20 to 60 °C”. In data set [7], the “PLD activity against PAF” value is “not against PAF”.

B2: M45G: lyso-PAF-PLD mutant, G substituted for M in the 45th position of SEQ ID NO: 9 (protein)
chain: MTTRTTDNPWLDARVLNMAHAGGENEAPANTLYAFKRAVKLGANGLELDVQSTKDDQLVVIHNATVDQTTDGTGKVRDLTFEQVHELDAAYNFIPGRHAVPGEPPESYPLRGVRTGEKKPPPGYQPSDFAIPKLADVLEAFPRTPINIEIKGTSDADIPSFLHNAKLLARLLKKTGRTDFIVTSFNDLAVAKFHLLAPDIPIAPGMAGLAAYFLLGVKPMHGTVALQIPVRYQGLEIATPEFIRRAHADGYAVHVWFSGTAPDDEATYNRIIDSCADGLMPAYPALLERILDERGIERPGRPGVDPCG
Usually Km stands for the substrate concentration at which the rate is half of its maximum. In general, kcat refers to the number of substrate molecules converted per active site and unit of time at saturation. In the case of B2, in data set [8], the Km was determined as 27 µM and the kcat worked out at 82 s⁻¹.

B3: M45D: lyso-PAF-PLD mutant, D substituted for M in the 45th position of SEQ ID NO: 9 (protein)
chain: MTTRTTDNPWLDARVLNMAHAGGENEAPANTLYAFKRAVKLGANDLELDVQSTKDDQLVVIHNATVDQTTDGTGKVRDLTFEQVHELDAAYNFIPGRHAVPGEPPESYPLRGVRTGEKKPPPGYQPSDFAIPKLADVLEAFPRTPINIEIKGTSDADIPSFLHNAKLLARLLKKTGRTDFIVTSFNDLAVAKFHLLAPDIPIAPGMAGLAAYFLLGVKPMHGTVALQIPVRYQGLEIATPEFIRRAHADGYAVHVWFSGTAPDDEATYNRIIDSCADGLMPAYPALLERILDERGIERPGRPGVDPCG
Turning to B3, in data set [8], the Km was found to be 34 µM and the kcat was determined as 157 s⁻¹.

B4: M45A: lyso-PAF-PLD mutant, A substituted for M in the 45th position of SEQ ID NO: 9 (protein)
chain: MTTRTTDNPWLDARVLNMAHAGGENEAPANTLYAFKRAVKLGANALELDVQSTKDDQLVVIHNATVDQTTDGTGKVRDLTFEQVHELDAAYNFIPGRHAVPGEPPESYPLRGVRTGEKKPPPGYQPSDFAIPKLADVLEAFPRTPINIEIKGTSDADIPSFLHNAKLLARLLKKTGRTDFIVTSFNDLAVAKFHLLAPDIPIAPGMAGLAAYFLLGVKPMHGTVALQIPVRYQGLEIATPEFIRRAHADGYAVHVWFSGTAPDDEATYNRIIDSCADGLMPAYPALLERILDERGIERPGRPGVDPCG
In the case of B4, in data set [8], the Km was determined as 12 µM and the kcat worked out at 136 s⁻¹.

B5: M45L: lyso-PAF-PLD mutant, L substituted for M in the 45th position of SEQ ID NO: 9 (protein)
chain: MTTRTTDNPWLDARVLNMAHAGGENEAPANTLYAFKRAVKLGANLLELDVQSTKDDQLVVIHNATVDQTTDGTGKVRDLTFEQVHELDAAYNFIPGRHAVPGEPPESYPLRGVRTGEKKPPPGYQPSDFAIPKLADVLEAFPRTPINIEIKGTSDADIPSFLHNAKLLARLLKKTGRTDFIVTSFNDLAVAKFHLLAPDIPIAPGMAGLAAYFLLGVKPMHGTVALQIPVRYQGLEIATPEFIRRAHADGYAVHVWFSGTAPDDEATYNRIIDSCADGLMPAYPALLERILDERGIERPGRPGVDPCG
For B5, in data set [8], the Km was determined as 23 µM and the turnover number (kcat) is 147 s⁻¹.
